Source: patent US20240016781A1, “TREATMENT OF KRAS MUTANT CANCERS” (MEI Pharma, Inc., priority 2020, published 2024)
Read-outs that look alike come from different tables or passages of the source.

Assays:
Experiment in all cases: 72-hour CellTiter-Glo 2.0 growth inhibition screen (single agent, 9x9 combination dose matrix)
Assay type in all cases: cell-based
[1] = tested on: SW48 KRAS (G12C/+); details: SW48 KRAS (G12C/+), Colorectal, 72 h; for EC50: read-out: EC50
Procedure: (§1) Growth inhibition was determined using a 72-hour CellTiter-Glo®2.0 proliferation assay. Combination format was a 9×9 dose matrix. Six of the 20 cell lines received the original two combinations whilst the remaining 14 cell lines received two additional combinations resulting in four combinations in total. Results have been supplied as both Chalice Analyzer files (.mcc) and raw luminescence data.
(§2) Cell lines that have been preserved in liquid nitrogen are thawed and expanded in growth media (see Appendix I). Once cells have reached expected doubling times, screening begins. Cells are seeded in 25 μl of growth media in black 384-well tissue culture treated plates at 500 cells per well (as noted in Analyzer). Cells are equilibrated in assay plates via centrifugation and placed at 37° C. 5% CO2 for twenty-four hours before treatment. […] Compounds are transferred to assay plates using and Echo acoustic liquid handling system. […] of each compound was added at the appropriate concentration for all combination dose points. Therefore, final assay volume would be 25.05 μl. Assay plates are incubated with compound for 3 days and are then analyzed using CellTiter-Glo 2.0. All data points are collected via automated processes and are subject to quality control and analyzed.
(§3) If T≥V_0:100*(1−(T−V_0)/(V−V_0)) • where T is the signal measure for a test article, V is the untreated/vehicle-treated control measure, and Vo is the untreated/vehicle control measure at time zero (also colloquially referred as TO plates). This formula is derived from the Growth Inhibition calculation used in the National Cancer Institute's NCI-60 high throughput screen. For the purposes of this disclosure, all data analysis was performed in Growth Inhibition (except where noted).
(§4) Inhibition is also provided as a measure of cell viability. […] Inhibition of 100% represents no doubling of cell numbers during the treatment window. Both cytostatic and cytotoxic treatments can yield an Inhibition percentage of 100%. Inhibition percentage is calculated as the following: […]
(§5) The fractional inhibition for each component agent and combination point in the matrix is calculated relative to the median of all untreated/vehicle-treated control wells. The Synergy Score equation integrates the experimentally-observed activity volume at each point in the matrix in excess of a model surface numerically derived from the activity of the component agents using the Loewe model for additivity. Additional terms in the Synergy Score equation (above) are used to normalize for various dilution factors used for individual agents and to allow for comparison of synergy scores across an entire experiment. The inclusion of positive inhibition gating or an Idata multiplier removes noise near the zero-effect level, and biases results for synergistic interactions at that occur at high activity levels. Combinations with higher maximum Growth Inhibition (GI) effects or those which are synergistic at low concentrations will have higher Synergy Scores.
(§6) The CI is a rough estimate of how much drug was needed in combination relative to the single agent doses required to achieve the chosen effect level. CI values in the range of 0.5-0.7 are typical for in vitro measurements of current clinical combinations. The CI error (σCI) is calculated using standard error propagation through the CI calculation based on the isobologram errors. In the Chalice Analyzer, the Best CI is reported from the many CI values calculated for each Icut crossing combination. Among all the measured CI values, the one with the largest single-to-noise level (1−CI)/σCI is reported as the Best CI. Best CI Level is the effect level from which the CI is calculated.

[2] = tested on: AsPC-1; details: AsPC-1, Pancreas, 72 h
Procedure: as §1, §2, §3, §4, §5, §6

[3] = tested on: SW48 KRAS (G12D/+); details: SW48 KRAS (G12D/+), Colorectal, 72 h; for EC50: read-out: EC50
Procedure: as §1, §2, §3, §4, §5, §6

[4] = tested on: SW837; details: SW837, Colorectal, 72 h
Procedure: as §1, §2, §3, §4, §5, §6

[5] = tested on: LS-513; details: LS-513, Colorectal, 72 h
Procedure: as §1, §2, §3, §4, §5, §6

[6] = Additional Single Agent Responses (inhibition, % I)
[7] = Additional Single Agent Responses
[8] = growth inhibition (GI) curve, single agent
[9] = growth inhibition (GI), AUC, single agent
[10] = growth inhibition (GI), single agent

Question: `CN1CC[C@@H](c2c(O)cc(O)c3c(=O)cc(-c4ccc(C(F)(F)F)cc4Cl)oc23)[C@@H]1CO` [MEI-522(Voruciclib)] was tested. Which IC50 [1, 6] did it give?
Answer: The IC50 was 0.731 µM.

Question: And the “Response Area” value [1, 6]?
Answer: Its value is 2.74.

Question: What about the EC50 [1, 6] of the same compound?
Answer: Its EC50 is 0.591 µM.

Question: What about the “Max Response (% I)” value [1, 7] of the same compound?
Answer: The value was 85 % I.

Question: And the GI50 [1, 8]?
Answer: The GI50 was 0.586 µM.

Question: And the EC50 [1, 8]?
Answer: The EC50 was 0.719 µM.

Question: And the “Response Area” value [1, 9]?
Answer: The value was 3.67.

Question: And the “Max Response (% GI)” value [1, 10]?
Answer: The value was 115 % GI.

Question: And the EC50 [2, 6]?
Answer: Its EC50 is 1.33 µM.

Question: And the IC50 [2, 6]?
Answer: Its IC50 is 2.32 µM.

Question: What about the “Response Area” value [2, 6] of the same compound?
Answer: Its value is 1.96.

Question: And the “Max Response (% I)” value [2, 7]?
Answer: The value was 68 % I.

Question: What about the EC50 [2, 8] of the same compound?
Answer: Its EC50 is 1.35 µM.

Question: What about the GI50 [2, 8] of the same compound?
Answer: The GI50 was 1.34 µM.

Question: What about the “Response Area” value [2, 9] of the same compound?
Answer: Its value is 2.86.

Question: And the “Max Response (% GI)” value [2, 10]?
Answer: Its value is 99 % GI.

Question: And the IC50 [3, 6]?
Answer: Its IC50 is 0.572 µM.

Question: What about the “Response Area” value [3, 6] of the same compound?
Answer: The value was 2.81.

Question: What about the EC50 [3, 6] of the same compound?
Answer: Its EC50 is 0.463 µM.

Question: And the “Max Response (% I)” value [3, 7]?
Answer: The value was 84 % I.

Question: What about the GI50 [3, 8] of the same compound?
Answer: Its GI50 is 0.428 µM.

Question: And the EC50 [3, 8]?
Answer: The EC50 was 0.541 µM.

Question: What about the “Response Area” value [3, 9] of the same compound?
Answer: Its value is 4.36.

Question: And the “Max Response (% GI)” value [3, 10]?
Answer: The value was 139 % GI.

Question: And the EC50 [4, 6]?
Answer: The EC50 was 1.99 µM.

Question: And the IC50 [4, 6]?
Answer: Its IC50 is 2.09 µM.

Question: And the “Response Area” value [4, 6]?
Answer: The value was 2.44.

Question: And the “Max Response (% I)” value [4, 7]?
Answer: The value was 90 % I.

Question: And the EC50 [4, 8]?
Answer: Its EC50 is 2.1 µM.

Question: What about the GI50 [4, 8] of the same compound?
Answer: The GI50 was 1.75 µM.

Question: What about the “Response Area” value [4, 9] of the same compound?
Answer: The value was 4.48.

Question: And the “Max Response (% GI)” value [4, 10]?
Answer: Its value is 166 % GI.

Question: And the EC50 [5, 6]?
Answer: Its EC50 is 0.549 µM.

Question: What about the IC50 [5, 6] of the same compound?
Answer: Its IC50 is 0.633 µM.

Question: What about the “Response Area” value [5, 6] of the same compound?
Answer: The value was 2.94.

Question: And the “Max Response (% I)” value [5, 7]?
Answer: Its value is 90 % I.

Question: What about the EC50 [5, 8] of the same compound?
Answer: The EC50 was 0.878 µM.

Question: And the GI50 [5, 8]?
Answer: The GI50 was 0.529 µM.

Question: And the “Response Area” value [5, 9]?
Answer: Its value is 4.51.

Question: What about the “Max Response (% GI)” value [5, 10] of the same compound?
Answer: The value was 147 % GI.
